Laboratory results taken from PubChem BioAssay AID330 (DTP/NCI, 2004).
Where “and” joins values, the source holds several entries; their conditions need not be identical. Equal entries are not always repeated. Inconclusive results and toxic doses are left out. How the source made its calls: active means survival T/C of 150% or more; inactive means T/C below 125% in these data.

System: P388 leukemia ip, CD2F1 mice, survival T/C
Experiment: NCI In Vivo Anticancer Drug Screen. Data for tumor model P388 Leukemia (intraperitoneal) in CD2F1 (CDF1) mice
Conditions: endpoint: median survival time, higher = longer survival
Outline: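 Mice carrying the transplanted tumor received test compound or vehicle. Survival was recorded in each group, and the value is the treated-group measurement divided by that of the vehicle-treated control group.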

[1] = dose: 240.0 mg/kg/injection, schedule: Q01DX005 (ip), vehicle: Klucel (hydroxypropylcellulose) (HPC)
[2] = dose: 100.0 mg/kg/injection, schedule: Q04DX002 (ip), vehicle: saline with Tween-80
[3] = dose: 200.0 mg/kg/injection, schedule: Q04DX002 (ip), vehicle: saline with Tween-80
[4] = dose: 400.0 mg/kg/injection, schedule: Q04DX002 (ip), vehicle: saline with Tween-80
[5] = dose: 100.0 mg/kg/injection, schedule: Q01DX009 (ip), vehicle: Klucel (hydroxypropylcellulose) (HPC)
[6] = dose: 50.0 mg/kg/injection, schedule: Q01DX009 (ip), vehicle: saline with Tween-80
[7] = dose: 100.0 mg/kg/injection, schedule: Q04DX003 (ip), vehicle: saline with Tween-80

Measured: T/C

C=C1C(=O)C23CCC4C5(C)CCCC4(C4OCCN4C5)C2CCC1C3 (stereo not drawn)
inactive: dose: 1.0 mg/kg/injection, schedule: Q01DX009 (ip), vehicle: Klucel (hydroxypropylcellulose) (HPC) 104 % of control | dose: 2.0 mg/kg/injection, schedule: Q01DX009 (ip), vehicle: Klucel (hydroxypropylcellulose) (HPC) 107 % of control | dose: 4.0 mg/kg/injection, schedule: Q01DX009 (ip), vehicle: Klucel (hydroxypropylcellulose) (HPC) 95 % of control | dose: 8.0 mg/kg/injection, schedule: Q01DX009 (ip), vehicle: Klucel (hydroxypropylcellulose) (HPC) 95 % of control

O=S(=O)(c1ccc(Cl)cc1)N(CCCCN(S(=O)(=O)c1ccc(Cl)cc1)S(=O)(=O)c1ccc(Cl)cc1)S(=O)(=O)c1ccc(Cl)cc1
inactive: dose: 60.0 mg/kg/injection, schedule: Q01DX005 (ip), vehicle: saline with Tween-80 99 % of control | dose: 120.0 mg/kg/injection, schedule: Q01DX005 (ip), vehicle: saline with Tween-80 93 % of control | dose: 240.0 mg/kg/injection, schedule: Q01DX005 (ip), vehicle: saline with Tween-80 90 % of control

COc1ccccc1N=Nc1c(-c2cccs2)nn(C(N)=S)c1C(F)(F)F
inactive: dose: 60.0 mg/kg/injection, schedule: Q01DX005 (ip), vehicle: Klucel (hydroxypropylcellulose) (HPC) 99 % of control | dose: 120.0 mg/kg/injection, schedule: Q01DX005 (ip), vehicle: Klucel (hydroxypropylcellulose) (HPC) 97 % of control | [1] 89 % of control

O=C(Nc1cccc2nsnc12)c1ccc(C(=O)Nc2cccc3nsnc23)cc1
inactive: dose: 0.46 mg/kg/injection, schedule: Q01DX005 (ip), vehicle: Klucel (hydroxypropylcellulose) (HPC) 97 % of control | dose: 0.93 mg/kg/injection, schedule: Q01DX005 (ip), vehicle: Klucel (hydroxypropylcellulose) (HPC) 96 % of control | dose: 1.87 mg/kg/injection, schedule: Q01DX005 (ip), vehicle: Klucel (hydroxypropylcellulose) (HPC) 98 % of control | dose: 30.0 mg/kg/injection, schedule: Q01DX005 (ip), vehicle: Klucel (hydroxypropylcellulose) (HPC) 86 % of control | [1] 98 % of control

O=C(O)/C(Br)=C(/Br)C(=O)O
inactive: [2] 106 % of control | [3] 100 % of control

O=C1C2C3C=CC(O3)C2C(=O)N1CCN1CCOCC1 (stereo not drawn)
inactive: dose: 25.0 mg/kg/injection, schedule: Q01DX005 (ip), vehicle: water 96 % of control | dose: 50.0 mg/kg/injection, schedule: Q01DX005 (ip), vehicle: water 97 % of control | dose: 100.0 mg/kg/injection, schedule: Q01DX005 (ip), vehicle: other 93 % of control | dose: 100.0 mg/kg/injection, schedule: Q01DX005 (ip), vehicle: water 102 % of control | dose: 200.0 mg/kg/injection, schedule: Q01DX005 (ip), vehicle: other 101 % of control

O=C1NC2C(CC(O)C(O)C2O)c2cc3c(c(O)c21)OCO3 (stereo not drawn)
inactive: dose: 0.19 mg/kg/injection, schedule: Q01DX009 (ip), vehicle: saline + alcohol 103 % of control | dose: 0.38 mg/kg/injection, schedule: Q01DX009 (ip), vehicle: saline + alcohol 111 % of control | dose: 0.75 mg/kg/injection, schedule: Q01DX009 (ip), vehicle: saline + alcohol 116 % of control | dose: 1.44 mg/kg/injection, schedule: Q01DX009 (ip), vehicle: saline + alcohol 107 % of control | dose: 1.5 mg/kg/injection, schedule: Q01DX009 (ip), vehicle: saline + alcohol 117 % of control | dose: 2.88 mg/kg/injection, schedule: Q01DX009 (ip), vehicle: saline + alcohol 115 % of control | dose: 5.75 mg/kg/injection, schedule: Q01DX009 (ip), vehicle: saline + alcohol 115 % of control | dose: 11.5 mg/kg/injection, schedule: Q01DX009 (ip), vehicle: saline + alcohol 115 % of control

O=S(=O)(O/C(=C(\OS(=O)(=O)C(F)(F)F)c1ccccc1)c1ccccc1)C(F)(F)F
inactive: dose: 50.0 mg/kg/injection, schedule: Q01DX005 (ip), vehicle: Klucel (hydroxypropylcellulose) (HPC) 97 % of control | dose: 100.0 mg/kg/injection, schedule: Q01DX005 (ip), vehicle: Klucel (hydroxypropylcellulose) (HPC) 98 % of control | dose: 200.0 mg/kg/injection, schedule: Q01DX005 (ip), vehicle: Klucel (hydroxypropylcellulose) (HPC) 91 % of control

S=c1[nH]ccs1
inactive: dose: 12.5 mg/kg/injection, schedule: Q01DX009 (ip), vehicle: water 99 % of control | dose: 25.0 mg/kg/injection, schedule: Q01DX009 (ip), vehicle: water 99 % of control | dose: 50.0 mg/kg/injection, schedule: Q01DX009 (ip), vehicle: water 95 % of control

CC1C(=O)C(C)C(c2ccccc2)OC1c1ccccc1 (stereo not drawn)
inactive: dose: 50.0 mg/kg/injection, schedule: Q04DX003 (ip), vehicle: saline 97 % of control | dose: 100.0 mg/kg/injection, schedule: Q04DX003 (ip), vehicle: saline 100 % of control | dose: 200.0 mg/kg/injection, schedule: Q04DX003 (ip), vehicle: saline 107 % of control

CCC[C@@H](O)CC(=O)N[C@@H](CO)c1ccccc1
inactive: dose: 60.0 mg/kg/injection, schedule: Q01DX005 (ip), vehicle: saline 96 % of control | dose: 120.0 mg/kg/injection, schedule: Q01DX005 (ip), vehicle: saline 95 % of control | dose: 240.0 mg/kg/injection, schedule: Q01DX005 (ip), vehicle: saline 96 % of control

CCC(C)(CC(=O)O)c1ccccc1 (stereo not drawn)
inactive: dose: 25.0 mg/kg/injection, schedule: Q04DX003 (ip), vehicle: Klucel (hydroxypropylcellulose) (HPC) 108 % of control | dose: 50.0 mg/kg/injection, schedule: Q04DX003 (ip), vehicle: Klucel (hydroxypropylcellulose) (HPC) 111 % of control | dose: 100.0 mg/kg/injection, schedule: Q04DX003 (ip), vehicle: Klucel (hydroxypropylcellulose) (HPC) 112 % of control | dose: 200.0 mg/kg/injection, schedule: Q04DX003 (ip), vehicle: Klucel (hydroxypropylcellulose) (HPC) 115 % of control

CSc1nc(SC)c2c(CO)c(Br)n(Cc3ccccc3)c2n1
inactive: [2] 98 % of control | [3] 94 % of control | [4] 88 % of control

Cn1c2ccccc2c2nnc(N/N=C/c3cccs3)nc21
inactive: [4] 105 % of control and 91 % of control

Cc1ccccc1N=Nc1c(N)ccc2ccccc12
inactive: [5] 105 % of control | dose: 200.0 mg/kg/injection, schedule: Q01DX009 (ip), vehicle: Klucel (hydroxypropylcellulose) (HPC) 111 % of control | dose: 400.0 mg/kg/injection, schedule: Q01DX009 (ip), vehicle: Klucel (hydroxypropylcellulose) (HPC) 109 % of control

Cc1cc(Cl)nc2nc(Cl)ccc12
inactive: dose: 50.0 mg/kg/injection, schedule: Q01DX005 (ip), vehicle: saline with Tween-80 101 % of control | dose: 100.0 mg/kg/injection, schedule: Q01DX005 (ip), vehicle: saline with Tween-80 93 % of control

O=C(/C=C\c1ccc(NCc2ccc(C(=O)O)cc2)cc1)CCl
inactive: dose: 25.0 mg/kg/injection, schedule: Q01DX009 (ip), vehicle: saline with Tween-80 122 % of control | dose: 25.0 mg/kg/injection, schedule: Q04DX003 (ip), vehicle: saline with Tween-80 100 % of control | [6] 122 % of control | dose: 50.0 mg/kg/injection, schedule: Q04DX003 (ip), vehicle: saline with Tween-80 104 % of control | [7] 109 % of control

O=C1c2ccccc2CCCC12OC2c1ccccn1 (stereo not drawn)
inactive: dose: 25.0 mg/kg/injection, schedule: Q01DX009 (ip), vehicle: Klucel (hydroxypropylcellulose) (HPC) 98 % of control | dose: 50.0 mg/kg/injection, schedule: Q01DX009 (ip), vehicle: Klucel (hydroxypropylcellulose) (HPC) 106 % of control | [5] 98 % of control

C[C@]12CCCC[C@@H]1CC[C@@H]1[C@@H]2[C@@H](O)C[C@@]2(C)[C@H]1CC[C@]2(C)O
inactive: [7] 100 % of control | dose: 200.0 mg/kg/injection, schedule: Q04DX003 (ip), vehicle: saline with Tween-80 100 % of control

CC(=O)OC1=C2OC(=O)C3(C2C=CC=C1)C1C=CC=CC13 (stereo not drawn)
inactive: [6] 97 % of control | dose: 100.0 mg/kg/injection, schedule: Q01DX009 (ip), vehicle: saline with Tween-80 97 % of control | dose: 200.0 mg/kg/injection, schedule: Q01DX009 (ip), vehicle: saline with Tween-80 111 % of control
